In PubChem BioAssay AID200 (DTP/NCI, 2004) one finds T/C data, which are given here for 17 molecules.

“And” between values parts separate entries of the source, which are not always exact repeats. Equal values may be shown once. Toxic doses and inconclusive results are not listed. Where a SMILES comes first, the peptide text is derived from it.

This assay relates to B6C3F1 mice, B16 melanoma ip, median survival T/C. Briefly: NCI In Vivo Anticancer Drug Screen. Data for tumor model B16 Melanoma (intraperitoneal) in B6C3F1 mice. To be noted: endpoint: median survival time, higher = longer survival. Summed up:
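Tumor-bearing mice received test compound; a separate group got vehicle only. Survival was then compared, with results reported as treated over control.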

The mark [1] stands for this setting: dose: 12.5 mg/kg/injection, schedule: Q01DX009 (ip), vehicle: saline with Tween-80.
Setting [2] is: dose: 25.0 mg/kg/injection, schedule: Q01DX009 (ip), vehicle: saline with Tween-80.
Setting [3] is: dose: 50.0 mg/kg/injection, schedule: Q01DX009 (ip), vehicle: saline with Tween-80.
[4] abbreviates: dose: 100.0 mg/kg/injection, schedule: Q01DX009 (ip), vehicle: saline with Tween-80.
[5] abbreviates: dose: 400.0 mg/kg/injection, schedule: Q01DX009 (ip), vehicle: saline with Tween-80.
The mark [6] stands for this setting: dose: 6.25 mg/kg/injection, schedule: Q01DX009 (ip), vehicle: Klucel (hydroxypropylcellulose) (HPC).
The mark [7] stands for this setting: dose: 12.5 mg/kg/injection, schedule: Q01DX009 (ip), vehicle: Klucel (hydroxypropylcellulose) (HPC).
The mark [8] stands for this setting: dose: 25.0 mg/kg/injection, schedule: Q01DX009 (ip), vehicle: Klucel (hydroxypropylcellulose) (HPC).
The mark [9] stands for this setting: dose: 100.0 mg/kg/injection, schedule: Q01DX009 (ip), vehicle: Klucel (hydroxypropylcellulose) (HPC).
Setting [10] is: dose: 200.0 mg/kg/injection, schedule: Q01DX009 (ip), vehicle: Klucel (hydroxypropylcellulose) (HPC).
[11] abbreviates: dose: 50.0 mg/kg/injection, schedule: Q01DX009 (ip), vehicle: Klucel (hydroxypropylcellulose) (HPC).
The mark [12] stands for this setting: dose: 50.0 mg/kg/injection, schedule: Q01DX009 (ip), vehicle: water.
Where [13] appears, read: dose: 12.5 mg/kg/injection, schedule: Q01DX009 (ip), vehicle: saline.
Setting [14] is: dose: 25.0 mg/kg/injection, schedule: Q01DX009 (ip), vehicle: saline.

Take `C/C=C(\C)c1cc(=O)c2c(C)cc3c(c2o1)C(=O)c1c(O)c(C2CC(C)(N(C)C)C(O)C(C)O2)cc(C2CC(N(C)C)C(O)C(C)O2)c1C3=O` (stereo unspecified): the T/C was 111 % of control (dose: 31.25 micrograms/kg/injection, schedule: Q01DX009 (ip), vehicle: saline); 114 % of control (dose: 62.5 micrograms/kg/injection, schedule: Q01DX009 (ip), vehicle: saline); 176 % of control (dose: 156.25 micrograms/kg/injection, schedule: Q01DX009 (ip), vehicle: saline); 93 % of control (dose: 1250.0 micrograms/kg/injection, schedule: Q01DX009 (ip), vehicle: saline).

In the case of `CC(C#N)(C#N)N=Nc1ccc(Cl)cc1Cl`, the T/C is, setting by setting: under setting [1], 98 % of control; under setting [2], 95 % of control; under setting [3], 95 % of control; under setting [4], 95 % of control; (dose: 200.0 mg/kg/injection, schedule: Q01DX009 (ip), vehicle: saline with Tween-80) 110 % of control; under setting [5], 89 % of control.

For `CC1=C(CCC(=O)O)c2cc3nc(cc4[nH]c(cc5[nH]c(cc1n2)c(C)c5C(C)O)c(C)c4C(C)O)C(C)=C3CCC(=O)O` (stereo unspecified), the T/C by setting is: (dose: 3.13 mg/kg/injection, schedule: Q01DX009 (ip), vehicle: Klucel (hydroxypropylcellulose) (HPC)) 111 % of control; under setting [6], 115 % of control; under setting [7], 107 % of control; under setting [8], 104 % of control.

Consider `Oc1cc(O)cc(/C=C/c2ccc(O)c(O)c2)c1`, for which the T/C is 118 % of control (dose: 6.25 mg/kg/injection, schedule: Q01DX009 (ip), vehicle: DMSO); 111 % of control (dose: 12.5 mg/kg/injection, schedule: Q01DX009 (ip), vehicle: DMSO); 117 % of control (dose: 50.0 mg/kg/injection, schedule: Q01DX009 (ip), vehicle: DMSO); 113 % of control and 96 % of control (dose: 100.0 mg/kg/injection, schedule: Q01DX009 (ip), vehicle: DMSO).

Regarding `C=C(C)C(=O)N(C)C(C)C(=O)OC1CC(=O)N(C)c2cc(cc(OC)c2Cl)C(OC)C(C)=C/C=C/C(OC)C2(O)CC(OC(=O)N2)C(C)C2OC12C` (stereo unspecified), the T/C (dose: 8.0 micrograms/kg/injection, schedule: Q01DX009 (ip), vehicle: saline) is 169 % of control; the T/C (dose: 16.0 micrograms/kg/injection, schedule: Q01DX009 (ip), vehicle: saline) is 182 % of control; the T/C (dose: 32.0 micrograms/kg/injection, schedule: Q01DX009 (ip), vehicle: saline) was 180 % of control.

For `Nc1ncnc2c1nnn2C1OC(CO)C(O)C1O` (stereo unspecified), the T/C reads like this: (dose: 6.0 mg/kg/injection, schedule: Q01DX009 (ip), vehicle: Klucel (hydroxypropylcellulose) (HPC)) 113 % of control; (dose: 12.0 mg/kg/injection, schedule: Q01DX009 (ip), vehicle: Klucel (hydroxypropylcellulose) (HPC)) 115 % of control; under setting [8], 176 % of control.

Regarding `NCC(=O)NC(Cc1ccccc1)C(=O)NCC(=O)O` (stereo unspecified) (HELM PEPTIDE1{G.[O=C(C(Cc1ccccc1)N[*:1])[*:2]].G}$$$$V2.0), the T/C was 103 % of control under setting [9]; 95 % of control under setting [10]; 100 % of control (dose: 400.0 mg/kg/injection, schedule: Q01DX009 (ip), vehicle: Klucel (hydroxypropylcellulose) (HPC)).

Turning to `CCOC(=O)Nc1cc2c(c(N)n1)N=C(c1ccccc1)CO2`, the T/C under setting [2] was 112 % of control and 118 % of control; the T/C under setting [3] is 111 % of control and 118 % of control; the T/C under setting [4] is 115 % of control and 124 % of control; the T/C (dose: 103.68 mg/kg/injection, schedule: Q01DX009 (ip), vehicle: saline with Tween-80) is 106 % of control; the T/C under setting [5] is 150 % of control and 198 % of control; the T/C (dose: 480.0 mg/kg/injection, schedule: Q01DX009 (ip), vehicle: saline with Tween-80) is 165 % of control. Moreover, where the note is “dose: 800.0 mg/kg/injection, schedule: Q01DX009 (ip), vehicle: saline with Tween-80”, the T/C was 172 % of control.

Take `COC(=O)C(CSCc1ccccc1)NC(=O)C(C)NC(=O)OCc1ccccc1` (stereo unspecified): the T/C under setting [11] is 97 % of control, the T/C under setting [9] was 90 % of control and the T/C under setting [10] was 90 % of control.

As to `COc1cccc2c1C(=O)c1c(O)c3c(c(O)c1C2=O)C[C@@](O)(C(O)CO)C[C@@H]3OC1CC(N(Cc2ccccc2)Cc2ccccc2)C(O)C(C)O1` (stereo partly specified), the T/C was 111 % of control (dose: 6.25 mg/kg/injection, schedule: Q01DX001 (ip), vehicle: water); 166 % of control (dose: 50.0 mg/kg/injection, schedule: Q01DX001 (ip), vehicle: water); 160 % of control under setting [12]; 196 % of control (dose: 100.0 mg/kg/injection, schedule: Q01DX001 (ip), vehicle: water); 232 % of control (dose: 200.0 mg/kg/injection, schedule: Q01DX001 (ip), vehicle: water).

For `COc1ccc(C(=S)N2CCN(c3ccccc3)CC2)cc1`, the T/C is 98 % of control (dose: 3.13 mg/kg/injection, schedule: Q01DX009 (ip), vehicle: saline with Tween-80); 91 % of control (dose: 6.25 mg/kg/injection, schedule: Q01DX009 (ip), vehicle: saline with Tween-80); 93 % of control under setting [1]; 101 % of control under setting [2].

For the molecule `COCC(CN1CCN(c2ccccc2OC)CC1)OC` (stereo unspecified), the T/C under setting [13] was 100 % of control; the T/C under setting [14] was 99 % of control; the T/C (dose: 50.0 mg/kg/injection, schedule: Q01DX009 (ip), vehicle: saline) was 105 % of control.

For the molecule `C=C1C(C)C2C(Cc3ccccc3)NC(=O)C23C(OC(C)=O)C=CC(C)(O)C(=O)C(C)C/C=C/C3C1O` (stereo unspecified), the T/C (dose: 0.31 mg/kg/injection, schedule: Q01DX009 (ip), vehicle: Klucel (hydroxypropylcellulose) (HPC)) is 101 % of control; the T/C (dose: 0.63 mg/kg/injection, schedule: Q01DX009 (ip), vehicle: Klucel (hydroxypropylcellulose) (HPC)) is 98 % of control; the T/C (dose: 1.25 mg/kg/injection, schedule: Q01DX009 (ip), vehicle: Klucel (hydroxypropylcellulose) (HPC)) is 109 % of control; the T/C (dose: 2.5 mg/kg/injection, schedule: Q01DX009 (ip), vehicle: Klucel (hydroxypropylcellulose) (HPC)) was 101 % of control; the T/C (dose: 5.0 mg/kg/injection, schedule: Q01DX009 (ip), vehicle: Klucel (hydroxypropylcellulose) (HPC)) is 106 % of control.

On to `COC1C(O)C(C)OC(OC2C(Oc3cccc4c(O)c5c(=O)oc6ccc(C)c7c(=O)oc(c34)c5c67)OC(C)C(O)C2O)C1O` (stereo unspecified), for which the T/C is, setting by setting: under setting [2], 170 % of control; under setting [3], 168 % of control.

For the molecule `O=NNc1cccnc1`, the T/C (dose: 6.25 mg/kg/injection, schedule: Q01DX009 (ip), vehicle: water) is 107 % of control; the T/C (dose: 12.5 mg/kg/injection, schedule: Q01DX009 (ip), vehicle: water) is 121 % of control; the T/C (dose: 25.0 mg/kg/injection, schedule: Q01DX009 (ip), vehicle: water) is 111 % of control; the T/C under setting [12] was 100 % of control; the T/C (dose: 100.0 mg/kg/injection, schedule: Q01DX009 (ip), vehicle: water) was 107 % of control.

Consider `C=C(C)[C@H]1CN[C@H](C(=O)O)[C@H]1CC(=O)O`, for which the T/C (dose: 0.31 mg/kg/injection, schedule: Q01DX009 (ip), vehicle: saline) was 96 % of control; the T/C (dose: 0.62 mg/kg/injection, schedule: Q01DX009 (ip), vehicle: saline) is 100 % of control; the T/C (dose: 1.25 mg/kg/injection, schedule: Q01DX009 (ip), vehicle: saline) was 91 % of control; the T/C (dose: 2.5 mg/kg/injection, schedule: Q01DX009 (ip), vehicle: saline) was 100 % of control; the T/C (dose: 5.0 mg/kg/injection, schedule: Q01DX009 (ip), vehicle: saline) is 90 % of control; the T/C (dose: 6.25 mg/kg/injection, schedule: Q01DX009 (ip), vehicle: saline) was 102 % of control. Also, the T/C is, setting by setting: (dose: 10.0 mg/kg/injection, schedule: Q01DX009 (ip), vehicle: saline) 86 % of control; under setting [13], 101 % of control; under setting [14], 93 % of control.

In the case of `O=C(CC(=O)C(F)(F)F)c1csc2ccccc12`, the T/C by setting is: (dose: 3.12 mg/kg/injection, schedule: Q01DX009 (ip), vehicle: Klucel (hydroxypropylcellulose) (HPC)) 112 % of control; under setting [6], 89 % of control; under setting [7], 103 % of control; under setting [8], 113 % of control; under setting [11], 100 % of control; under setting [9], 87 % of control.
